Experimental data reported in article PMC11079024, “Identification of a family of species-selective complex I inhibitors as potential anthelmintics” (Nature Communications, 2024).
“And” between values parts separate entries of the source, which are not always exact repeats. Equal entries are not always repeated. Where two headings read alike, the source gives them in different places.

Key:
[1] = tested on: C. elegans complex III (decylubiquinol-cytochrome C reductase); assay: In vitro complex III activity assay, C. elegans mitochondria; assay type: biochemical, Caenorhabditis elegans; conditions: for % Activity Complex III: 100 µM compound, relative to solvent control, mean (SEM); for CIII Activity: 100 μM inhibitor, in vitro activity relative to solvent control, N2 C. elegans mitochondria; for Percent in vitro activity, Complex III (single replicate Rep1-Rep4) / Percent in vitro activity, Complex III (Mean): 100 μM of NPD compound, C. elegans mitochondria; for Percent in vitro activity, Complex III (single replicate Rep1-Rep4): individual biological replicates; for Percent in vitro activity, Complex III (Mean): mean of four biological replicates
Method in brief: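 Mitochondria were isolated from adult C. elegans by bead-beating and differential centrifugation, then used at 0.2 mg/mL protein. Antimycin A-sensitive complex III activity was followed as decylubiquinol-driven cytochrome C reduction at 550 nm every 30 s for 15 min. Initial linear slopes were expressed as percent of solvent control.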

adult H. polygyrus = assay: microbe, parasite or virus in culture; assay type: cell-based, Heligmosomoides polygyrus; conditions: anaerobic, 24 hours after treatment; for killing at 10 µM: Heligmosomoides polygyrus, 24 h, adult H. polygyrus, affected = score equal to or lower than 1.5, read-out: Percent Worms Affected; for # of Worms Affected: worms with score equal to or lower than 1.5
Method: To investigate the impact of the eleven benzimidazole derivatives under anaerobic conditions, an anaerobic chamber with an integrated incubator (Coy Laboratory Products, USA) was used. The same procedure was followed as described for the aerobic drug screening in adult H. polygyrus, but the incubation took place within the anaerobic chamber (37 °C, 85% N2, 10% CO2, 5% H2). Benzimidazole derivatives were tested at a concentration of 10 µM. For scoring, the plates had to be removed from the anaerobic chamber. The whole experiment was performed two times i.e., two independent biological replicates.
The activities of eleven benzimidazole derivatives were tested against adult H. polygyrus viability in vitro under aerobic (+, white boxplots) and anaerobic (–, coloured boxplots) conditions (see Methods). After 24-hour chemical treatment, worm viability was manually scored by an examiner using a scale from 0 (dead) to 3 (motile); DMSO was used as a negative control in both aerobic and anaerobic conditions; levamisole was used as a positive control in anaerobic conditions. The percentage of affected worms (i.e., worms with a score equal to or lower than 1.5) in each biological replicate is shown; data are from two biological replicates. Within each boxplot, black horizontal lines denote group medians, boxes span from the 25th to the 75th percentile of each group’s distribution, and whiskers extend to the maximum and minimum values. […]

## O=C(NCCc1ccc(Cl)cc1)c1ccccc1C(F)(F)F [Wact-11]
[1]
  % Activity Complex III: 90.97 (1.75) %
  Percent in vitro activity, Complex III (single replicate Rep1-Rep4): 83.802% and 95.824% and 97.988% and 86.268%
  Percent in vitro activity, Complex III (Mean): 90.970%
[1]; Mean
  CIII Activity: 90.970%
[1]; single replicate
  CIII Activity: 83.802% and 95.824% and 97.988% and 86.268%

## Clc1ccccc1OCCCCn1cnc2ccccc21 [Compound 7925804]
Adult H. polygyrus; replicate 1
  killing at 10 µM: 50%
  # of Worms Affected: 3
Adult H. polygyrus; replicate 2
  # of Worms Affected: 6
Adult H. polygyrus; replicate 2, scale from 0 (dead) to 3 (motile)
  Worm viability score, individual worms (Worm1-Worm20): 2 (3×) and 1.5 (2×) and 1

## Cc1ccccc1OCCCCn1cnc2ccccc21 [Compound 7732524]
Adult H. polygyrus; replicate 1
  killing at 10 µM: 60%
  # of Worms Affected: 3
Adult H. polygyrus; replicate 2
  killing at 10 µM: 0%
  # of Worms Affected: 0

## Cc1nc2ccccc2n1Cc1ccccc1Cl [Compound 6707368]
Adult H. polygyrus; replicate 1
  killing at 10 µM: 100%
  # of Worms Affected: 6
Adult H. polygyrus; replicate 2
  killing at 10 µM: 33%
  # of Worms Affected: 2

## Cc1nc2ccccc2n1Cc1ccc(Br)cc1 [Compound 5567167]
Adult H. polygyrus; replicate 1
  killing at 10 µM: 50%
  # of Worms Affected: 3
Adult H. polygyrus; replicate 2
  killing at 10 µM: 67%
  # of Worms Affected: 4

## COc1cc2c(cc1OC)C(/C=C/c1ccc(N(C)C)cc1)=NCC2 [NPD6303]
[1]
  % Activity Complex III: 78.10 (1.39) %
  Percent in vitro activity, Complex III (single replicate Rep1-Rep4): 81.950% and 83.314% and 71.366% and 75.773%
  Percent in vitro activity, Complex III (Mean): 78.101%

## Cc1nc2ccccc2n1Cc1ccc(Cl)cc1 [STK697993]
Adult H. polygyrus; replicate 1
  killing at 10 µM: 100%
  # of Worms Affected: 7
Adult H. polygyrus; replicate 2
  killing at 10 µM: 33%
  # of Worms Affected: 2

## COc1cc2c(cc1OC)C(C(C)c1ccc(CC(C)C)cc1)=NCC2 (stereo not shown) [NPD10504]
[1]
  % Activity Complex III: 79.51 (1.51) %
  Percent in vitro activity, Complex III (single replicate Rep1-Rep4): 86.667% and 75.479% and 82.250% and 73.635%
  Percent in vitro activity, Complex III (Mean): 79.508%

## CCn1c(C(C)c2ccc(CC(C)C)cc2)nc2ccccc21 (stereo not shown) [STK951902]
Adult H. polygyrus; replicate 1
  killing at 10 µM: 100%
  # of Worms Affected: 6
Adult H. polygyrus; replicate 2
  killing at 10 µM: 67%
  # of Worms Affected: 4

## CC(C)Cc1ccc(C(C)c2nc3ccccc3n2C(C)C)cc1 (stereo not shown) [STK951903]
Adult H. polygyrus; replicate 1
  killing at 10 µM: 67%
  # of Worms Affected: 4
Adult H. polygyrus; replicate 2
  killing at 10 µM: 83%
  # of Worms Affected: 5

## COc1cc2c(cc1OC)C(c1ccc(-c3ccc(Cl)c(Cl)c3)o1)=NCC2 [NPD3577]
[1]
  % Activity Complex III: 65.54 (2.59) %
  Percent in vitro activity, Complex III (single replicate Rep1-Rep4): 80.555% and 63.410% and 61.250% and 56.942%
  Percent in vitro activity, Complex III (Mean): 65.539%

## Clc1ccc(Cn2cnc3ccccc32)c(Cl)c1 [Compound 6750659]
Adult H. polygyrus; replicate 1
  killing at 10 µM: 50%
  # of Worms Affected: 3
Adult H. polygyrus; replicate 2
  killing at 10 µM: 67%
  # of Worms Affected: 4

## CC(C)Cc1ccc(C(C)c2nc3ccccc3n2C)cc1 (stereo not shown) [NPD8790]
[1]
  % Activity Complex III: 63.54 (0.90) %
  Percent in vitro activity, Complex III (single replicate Rep1-Rep4): 58.669% and 65.835% and 63.074% and 66.590%
  Percent in vitro activity, Complex III (Mean): 63.542%

## C=C(C)[C@H]1Cc2c(ccc3c2O[C@@H]2COc4cc(OC)c(OC)cc4[C@@H]2C3=O)O1 [Rotenone, reference compound]
[1]
  % Activity Complex III: 99.20 (1.32) %
  Percent in vitro activity, Complex III (single replicate Rep1-Rep4): 102.759% and 97.964% and 103.800% and 92.288%
  Percent in vitro activity, Complex III (Mean): 99.203%
[1]; Mean
  CIII Activity: 99.203%
[1]; single replicate
  CIII Activity: 92.288% and 102.759% and 97.964% and 103.800%

## Clc1ccc(SCCCCn2cnc3ccccc32)cc1 [Compound 7925515]
Adult H. polygyrus; replicate 1
  killing at 10 µM: 100%
  # of Worms Affected: 5
Adult H. polygyrus; replicate 2
  killing at 10 µM: 83%
  # of Worms Affected: 5
